Results published in patent US20260103455A1, “ULK3 INHIBITORS AND USES THEREOF” (H. LEE MOFFITT CANCER CENTER AND RESEARCH INSTITUTE, INC., priority 2022, published 2026).
Where “and” joins values, the source holds several entries; their conditions need not be identical. Equal values may be shown once. Where a name gives a salt, the structure may show the parent alone.

Target: T1, ULK3 (Homo sapiens, UniProt Q6PHR2)
T1 sequence (Q6PHR2 1-472): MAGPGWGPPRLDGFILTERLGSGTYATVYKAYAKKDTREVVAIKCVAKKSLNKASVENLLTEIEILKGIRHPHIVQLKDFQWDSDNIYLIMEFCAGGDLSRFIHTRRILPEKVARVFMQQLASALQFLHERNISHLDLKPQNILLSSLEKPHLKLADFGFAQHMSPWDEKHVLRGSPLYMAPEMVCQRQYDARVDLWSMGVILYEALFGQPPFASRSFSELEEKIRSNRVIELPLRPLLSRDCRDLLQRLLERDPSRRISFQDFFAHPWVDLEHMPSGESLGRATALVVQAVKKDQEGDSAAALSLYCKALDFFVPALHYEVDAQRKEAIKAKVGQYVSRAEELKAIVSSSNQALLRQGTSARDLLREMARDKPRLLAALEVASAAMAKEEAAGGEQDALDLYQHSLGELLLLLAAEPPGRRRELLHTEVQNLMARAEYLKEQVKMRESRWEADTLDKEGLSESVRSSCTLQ
Assay: DSF (ULK3) thermal shift
Format: binding

DSF (ULK3) ΔTm (° C.) | SMILES
8.8 °C | CN1CCN(c2ccc(Nc3ncc(F)c(-c4ccc(C(=O)NCC#N)cc4)n3)cc2F)CC1 [BH1-095]
14.4 °C | CN1CCN(c2cccc(Nc3nccc(-c4ccc(C(=O)NCC(F)(F)F)cc4)n3)c2)CC1 [BH2-010, 4-(2-((3-(4-Methylpiperazin-1-yl)phenyl)amino)pyrimidin-4-yl)-N-(2,2,2-trifluoroethyl)benzamide]
14.5 °C and 14.4 °C | CN1CCN(c2cccc(Nc3nccc(-c4ccc(C(=O)N5CCC[C@@H]5C(F)(F)F)cc4)n3)c2)CC1 [BH2-011, (R)-(4-(2-((3-(4-Methylpiperazin-1-yl)phenyl)amino)pyrimidin-4-yl)phenyl) (2-(trifluoromethyl)pyrrolidin-1-yl) methanone]
10.9 °C | CN1CCN(c2cccc(Nc3nccc(-c4ccc(C(=O)N5CCC[C@H]5C(F)(F)F)cc4)n3)c2)CC1 [BH2-013, (S)-(4-(2-((3-(4-Methylpiperazin-1-yl)phenyl)amino)pyrimidin-4-yl)phenyl) (2-(trifluoromethyl)pyrrolidin-1-yl) methanone]
14.3 °C and 9.9 °C | N#CCNC(=O)c1ccc(-c2ccnc(Nc3ccc(N4CCOCC4)cc3)n2)cc1 [BL4-106 HCl salt, reference compound]
11.6 °C | N#CC(NC(=O)c1ccc(-c2ccnc(Nc3ccc(N4CCOCC4)cc3)n2)cc1)c1ccccc1 (stereo not drawn) [BL4-153, N-(Cyano (phenyl)methyl)-4-(2-((4-morpholinophenyl)amino)pyrimidin-4-yl)benzamide]
9.1 °C | O=C(N[C@H](CO)Cc1ccccc1)c1ccc(-c2ccnc(Nc3ccc(N4CCOCC4)cc3)n2)cc1 [BR1-034, (S)—N-(1-Hydroxy-3-phenylpropan-2-yl)-4-(2-((4-morpholinophenyl)amino)pyrimidin-4-yl)benzamide]
9.8 °C | COC[C@@H](NC(=O)c1ccc(-c2ccnc(Nc3ccc(N4CCOCC4)cc3)n2)cc1)c1ccccc1 [BR1-036, (S)—N-(2-Methoxy-1-phenylethyl)-4-(2-((4-morpholinophenyl)amino)pyrimidin-4-yl)benzamide]
8.4 °C | COC[C@H](NC(=O)c1ccc(-c2ccnc(Nc3ccc(N4CCOCC4)cc3)n2)cc1)c1ccccc1 [BR1-038, (R)—N-(2-Methoxy-1-phenylethyl)-4-(2-((4-morpholinophenyl)amino)pyrimidin-4-yl)benzamide]
14.7 °C | O=C(NCC(F)(F)F)c1ccc(-c2ccnc(Nc3cccc(N4CCOCC4)c3)n2)cc1 [BR1-045, 4-(2-((3-Morpholinophenyl)amino)pyrimidin-4-yl)-N-(2,2,2-trifluoroethyl)benzamide]
13.4 °C | O=C(c1ccc(-c2ccnc(Nc3cccc(N4CCOCC4)c3)n2)cc1)N1CCC[C@@H]1C(F)(F)F [BR1-047]
9.3 °C | O=C(c1ccc(-c2ccnc(Nc3cccc(N4CCOCC4)c3)n2)cc1)N1CCC[C@H]1C(F)(F)F [BR1-048]
11.1 °C | CN1CCN(c2cc(F)cc(Nc3nccc(-c4ccc(C(=O)NCC(F)(F)F)cc4)n3)c2)CC1 [BR1-051]
14.1 °C | CN1CCN(c2cc(F)cc(Nc3nccc(-c4ccc(C(=O)N5CCC[C@@H]5C(F)(F)F)cc4)n3)c2)CC1 [BR1-052]
10.5 °C | CN1CCN(c2cc(F)cc(Nc3nccc(-c4ccc(C(=O)N5CCC[C@H]5C(F)(F)F)cc4)n3)c2)CC1 [BR1-053]
1.3 °C | O=C(NCC(F)(F)F)c1ccc(-c2ccnc(Nc3ccc(N4CCOCC4)cc3N3CCOCC3)n2)cc1 [BR1-054]
8.4 °C | Cc1cnc(Nc2ccc(N3CCOCC3)cc2)nc1-c1ccc(C(=O)NCC#N)cc1 [GM1-032, N-(Cyanomethyl)-4-(5-methyl-2-((4-(morpholino)phenyl)amino)pyrimidin-4-yl)benzamide]
10.6 °C | N#CCNC(=O)c1ccc(-c2nc(Nc3ccc(N4CCOCC4)cc3)ncc2F)cc1 [GM1-034, N-(Cyanomethyl)-4-(5-fluoro-2-((4-morpholinophenyl)amino)pyrimidin-4-yl)benzamide]
